The source made the active and inactive calls.
How the values were obtained:
[1] = target: T1, Probable nicotinate-nucleotide adenylyltransferase (Staphylococcus aureus (strain N315), UniProt P65502); type: functional, Staphylococcus aureus subsp. aureus N315;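 for IC50 Mean: confirmatory dose-response retesting of NadD inhibitor hits first found in an ultra-high-throughput screen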
[2] = target: T1, Probable nicotinate-nucleotide adenylyltransferase; type: functional, Staphylococcus aureus subsp. aureus N315; settings: read-out: IC50_Mean
[3] = target: T2, Corticotropin-releasing factor receptor 2/Corticotropin-releasing factor-binding protein (Homo sapiens, UniProt P24387+Q13324); experiment: Dose Response confirmation of uHTS hits for small molecule antagonists of the CRF-binding protein and CRF-R2 receptor complex.; type: functional; settings: read-out: IC50_Mean
T2 sequence (Q13324 whole entry): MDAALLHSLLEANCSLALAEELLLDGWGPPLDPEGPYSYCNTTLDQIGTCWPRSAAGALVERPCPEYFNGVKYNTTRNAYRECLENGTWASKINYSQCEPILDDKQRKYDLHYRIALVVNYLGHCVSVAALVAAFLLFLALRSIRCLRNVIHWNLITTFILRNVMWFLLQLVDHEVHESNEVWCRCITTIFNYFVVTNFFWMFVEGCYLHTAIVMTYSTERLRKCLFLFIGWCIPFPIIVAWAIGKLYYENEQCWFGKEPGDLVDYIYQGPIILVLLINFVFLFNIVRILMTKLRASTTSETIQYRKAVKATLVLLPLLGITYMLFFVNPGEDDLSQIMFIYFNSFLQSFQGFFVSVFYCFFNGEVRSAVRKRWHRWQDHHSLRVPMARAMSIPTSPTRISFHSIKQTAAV
T2 sequence (P24387 whole entry): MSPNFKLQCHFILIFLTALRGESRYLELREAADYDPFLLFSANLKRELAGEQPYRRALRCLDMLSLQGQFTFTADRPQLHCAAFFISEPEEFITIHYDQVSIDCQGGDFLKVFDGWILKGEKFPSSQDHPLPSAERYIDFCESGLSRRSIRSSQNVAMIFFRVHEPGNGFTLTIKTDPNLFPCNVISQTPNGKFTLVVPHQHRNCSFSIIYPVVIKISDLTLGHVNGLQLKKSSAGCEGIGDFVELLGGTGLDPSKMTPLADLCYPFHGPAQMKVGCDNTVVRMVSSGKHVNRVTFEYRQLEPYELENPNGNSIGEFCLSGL

[4] = target: T2, Corticotropin-releasing factor receptor 2/Corticotropin-releasing factor-binding protein; experiment: activators of CRF receptor 2 with binding protein – uHTS hits, confirmation (AID 602473); type: functional; settings: read-out: EC50_Mean
[5] = target: Arf-GAP with SH3 domain, ANK repeat and PH domain-containing protein 1 (Homo sapiens, UniProt Q9ULH1); type: functional;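 note: biochemical fluorescence polarization dose–response screen measuring inhibition of ASAP1; ASAP1 GAP domain stimulating GTP hydrolysis by truncated human ARF1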
Chain of Arf-GAP with SH3 domain, ANK repeat and PH domain-containing protein 1 (Q9ULH1 whole entry, the tested form may be a part): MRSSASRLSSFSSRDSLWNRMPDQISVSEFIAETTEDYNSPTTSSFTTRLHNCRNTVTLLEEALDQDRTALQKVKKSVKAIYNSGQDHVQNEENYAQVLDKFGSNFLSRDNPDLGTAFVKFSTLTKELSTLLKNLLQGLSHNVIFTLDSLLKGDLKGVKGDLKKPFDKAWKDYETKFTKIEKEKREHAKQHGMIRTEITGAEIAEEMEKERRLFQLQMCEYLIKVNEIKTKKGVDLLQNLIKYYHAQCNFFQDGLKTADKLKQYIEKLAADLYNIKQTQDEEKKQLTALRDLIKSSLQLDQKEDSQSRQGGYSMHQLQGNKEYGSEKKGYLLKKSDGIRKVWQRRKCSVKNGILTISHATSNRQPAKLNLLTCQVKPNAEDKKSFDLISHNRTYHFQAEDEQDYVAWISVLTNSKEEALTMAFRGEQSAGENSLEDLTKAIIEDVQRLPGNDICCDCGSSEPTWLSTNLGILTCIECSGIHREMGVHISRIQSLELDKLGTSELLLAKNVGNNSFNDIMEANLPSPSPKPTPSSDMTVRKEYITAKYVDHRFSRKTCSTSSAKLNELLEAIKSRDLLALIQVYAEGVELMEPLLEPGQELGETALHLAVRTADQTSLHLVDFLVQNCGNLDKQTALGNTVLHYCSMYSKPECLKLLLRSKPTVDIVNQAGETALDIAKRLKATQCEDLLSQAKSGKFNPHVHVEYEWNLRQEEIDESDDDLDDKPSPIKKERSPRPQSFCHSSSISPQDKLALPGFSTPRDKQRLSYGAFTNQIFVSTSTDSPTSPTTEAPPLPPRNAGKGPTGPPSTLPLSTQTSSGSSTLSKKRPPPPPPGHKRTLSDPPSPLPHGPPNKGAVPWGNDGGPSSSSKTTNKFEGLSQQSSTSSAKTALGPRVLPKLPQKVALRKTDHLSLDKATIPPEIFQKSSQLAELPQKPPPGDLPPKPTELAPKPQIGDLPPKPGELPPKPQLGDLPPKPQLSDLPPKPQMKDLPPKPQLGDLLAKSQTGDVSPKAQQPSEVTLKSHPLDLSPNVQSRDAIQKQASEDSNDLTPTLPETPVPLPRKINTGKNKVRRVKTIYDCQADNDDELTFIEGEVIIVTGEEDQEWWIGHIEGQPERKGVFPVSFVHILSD

[6] = target: SWI/SNF-related matrix-associated actin-dependent regulator of chromatin subfamily A member 2 (Homo sapiens, UniProt P51531); experiment: Luminescence-based cell-based high throughput dose response assay to identify activators of the function of SWI/SNF related, matrix associated, actin dependent regulator of chromatin, subfamily a, member 2 (SMARCA2, BRM).; type: functional
Chain of SWI/SNF-related matrix-associated actin-dependent regulator of chromatin subfamily A member 2 (P51531 whole entry): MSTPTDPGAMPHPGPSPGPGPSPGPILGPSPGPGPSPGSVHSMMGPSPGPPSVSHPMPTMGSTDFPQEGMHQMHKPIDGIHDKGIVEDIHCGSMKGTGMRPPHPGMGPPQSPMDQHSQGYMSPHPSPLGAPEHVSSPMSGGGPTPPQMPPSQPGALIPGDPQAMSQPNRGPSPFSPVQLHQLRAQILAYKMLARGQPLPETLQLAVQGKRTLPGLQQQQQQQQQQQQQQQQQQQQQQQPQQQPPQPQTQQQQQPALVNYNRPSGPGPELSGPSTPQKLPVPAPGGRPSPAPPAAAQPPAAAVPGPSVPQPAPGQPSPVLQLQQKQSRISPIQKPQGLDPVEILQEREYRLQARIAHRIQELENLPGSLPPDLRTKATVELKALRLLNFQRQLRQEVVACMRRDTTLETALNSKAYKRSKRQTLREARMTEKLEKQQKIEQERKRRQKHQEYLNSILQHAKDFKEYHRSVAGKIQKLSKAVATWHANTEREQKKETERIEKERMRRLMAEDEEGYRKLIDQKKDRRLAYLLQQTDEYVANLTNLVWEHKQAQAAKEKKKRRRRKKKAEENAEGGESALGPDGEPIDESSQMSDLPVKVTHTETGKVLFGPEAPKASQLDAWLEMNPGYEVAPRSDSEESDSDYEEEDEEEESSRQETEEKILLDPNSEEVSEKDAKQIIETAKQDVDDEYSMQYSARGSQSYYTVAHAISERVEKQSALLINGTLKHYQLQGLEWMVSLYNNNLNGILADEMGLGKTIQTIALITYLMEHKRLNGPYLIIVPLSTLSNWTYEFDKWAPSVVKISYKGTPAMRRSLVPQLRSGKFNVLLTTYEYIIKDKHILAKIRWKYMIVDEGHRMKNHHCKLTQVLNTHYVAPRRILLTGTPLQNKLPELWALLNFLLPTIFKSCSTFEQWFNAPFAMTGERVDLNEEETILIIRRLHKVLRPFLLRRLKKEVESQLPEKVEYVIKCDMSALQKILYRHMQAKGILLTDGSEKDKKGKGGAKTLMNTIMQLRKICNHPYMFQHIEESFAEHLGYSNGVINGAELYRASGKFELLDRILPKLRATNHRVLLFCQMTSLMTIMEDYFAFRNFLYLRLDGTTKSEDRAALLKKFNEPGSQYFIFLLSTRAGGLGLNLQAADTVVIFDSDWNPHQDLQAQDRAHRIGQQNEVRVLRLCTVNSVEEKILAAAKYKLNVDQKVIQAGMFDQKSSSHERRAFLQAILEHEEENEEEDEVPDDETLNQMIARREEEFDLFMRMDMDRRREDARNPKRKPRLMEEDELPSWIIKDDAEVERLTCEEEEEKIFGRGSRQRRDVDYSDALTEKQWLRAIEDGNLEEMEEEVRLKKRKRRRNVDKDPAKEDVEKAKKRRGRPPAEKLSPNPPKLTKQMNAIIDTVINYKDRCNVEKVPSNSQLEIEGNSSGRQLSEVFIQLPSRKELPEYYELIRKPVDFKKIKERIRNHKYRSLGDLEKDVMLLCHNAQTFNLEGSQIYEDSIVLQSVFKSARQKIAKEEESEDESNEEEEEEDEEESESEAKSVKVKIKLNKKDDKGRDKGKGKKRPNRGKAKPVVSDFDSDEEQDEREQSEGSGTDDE

[7] = Counterscreen for activators of the function of SWI/SNF related, matrix associated, actin dependent regulator of chromatin, subfamily a, member 2 (SMARCA2, BRM): Luminescence-based cell-based high throughput dose response assay to identify non-selective compounds using the VP16 reporter assay.; type: functional
[8] = target: T3, DNA repair and recombination protein RAD54-like (Homo sapiens, UniProt Q92698); experiment: RAD54 Holliday junction migration blockers – biochemical, fluorescence, cherry-picked samples, dose series, confirmation (AID 651657); type: functional
T3 sequence (Q92698 whole entry): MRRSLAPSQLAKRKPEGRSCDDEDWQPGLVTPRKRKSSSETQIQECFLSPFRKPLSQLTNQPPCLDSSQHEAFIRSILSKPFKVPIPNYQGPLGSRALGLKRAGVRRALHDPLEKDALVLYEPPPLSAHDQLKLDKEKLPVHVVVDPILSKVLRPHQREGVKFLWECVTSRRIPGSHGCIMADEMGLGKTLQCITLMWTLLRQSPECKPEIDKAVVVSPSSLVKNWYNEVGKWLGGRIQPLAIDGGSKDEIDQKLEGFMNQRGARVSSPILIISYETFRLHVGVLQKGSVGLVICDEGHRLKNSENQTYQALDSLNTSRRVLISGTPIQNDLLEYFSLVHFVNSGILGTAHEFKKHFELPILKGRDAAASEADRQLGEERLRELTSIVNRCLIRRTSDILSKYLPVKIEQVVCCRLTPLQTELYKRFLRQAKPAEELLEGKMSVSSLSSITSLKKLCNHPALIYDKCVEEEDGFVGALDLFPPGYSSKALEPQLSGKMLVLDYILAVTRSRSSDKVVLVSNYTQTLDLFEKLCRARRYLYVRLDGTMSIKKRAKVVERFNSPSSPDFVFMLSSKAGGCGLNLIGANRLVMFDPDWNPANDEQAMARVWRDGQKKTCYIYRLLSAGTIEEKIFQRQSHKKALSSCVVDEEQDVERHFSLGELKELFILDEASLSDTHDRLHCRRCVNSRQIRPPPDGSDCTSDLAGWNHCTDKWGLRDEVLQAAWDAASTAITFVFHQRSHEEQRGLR

[9] = target: T4, DNA repair protein RAD52 homolog (Homo sapiens, UniProt P43351); type: functional, biochemical
T4 sequence (P43351 whole entry): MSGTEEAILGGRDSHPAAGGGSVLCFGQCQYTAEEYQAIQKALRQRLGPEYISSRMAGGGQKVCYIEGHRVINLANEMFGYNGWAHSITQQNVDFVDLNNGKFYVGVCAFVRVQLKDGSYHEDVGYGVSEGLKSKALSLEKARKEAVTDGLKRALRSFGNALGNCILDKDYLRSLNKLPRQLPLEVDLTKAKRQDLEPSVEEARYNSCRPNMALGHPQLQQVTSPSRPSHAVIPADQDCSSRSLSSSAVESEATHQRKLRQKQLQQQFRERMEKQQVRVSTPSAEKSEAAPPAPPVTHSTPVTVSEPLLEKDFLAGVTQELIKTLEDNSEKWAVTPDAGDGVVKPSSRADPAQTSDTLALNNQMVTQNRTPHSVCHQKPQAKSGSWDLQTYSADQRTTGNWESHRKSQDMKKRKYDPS

[10] = target: T5, Mannose-6-phosphate isomerase (Homo sapiens, UniProt P34949); experiment: MPI inhibition at elevated mannose 6-phosphate – biochemical, fluorescence intensity, high mannose 6-phosphate, primary screen (AID 1220)
T5 sequence (P34949 whole entry): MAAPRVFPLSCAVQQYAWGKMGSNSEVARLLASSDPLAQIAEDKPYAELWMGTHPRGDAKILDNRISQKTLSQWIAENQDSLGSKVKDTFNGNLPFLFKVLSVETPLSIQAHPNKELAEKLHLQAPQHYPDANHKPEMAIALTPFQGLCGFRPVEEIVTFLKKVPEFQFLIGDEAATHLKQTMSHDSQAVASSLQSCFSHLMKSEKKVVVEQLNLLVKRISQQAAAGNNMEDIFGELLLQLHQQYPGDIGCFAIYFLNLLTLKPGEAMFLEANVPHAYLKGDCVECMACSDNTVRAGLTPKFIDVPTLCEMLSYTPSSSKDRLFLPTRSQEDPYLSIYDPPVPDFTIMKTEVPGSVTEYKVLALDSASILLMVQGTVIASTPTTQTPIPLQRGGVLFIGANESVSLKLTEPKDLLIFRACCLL

[11] = Vero E6 cell cytotoxicity, dose response, cytotoxicity control for non-replicating M. tuberculosis project, secondary assay (AID 492998); type: functional, VeroE6; settings: Vero C1008
cells = type: functional
[12] = target: T6, Replicative DNA helicase DnaB (Mycobacterium tuberculosis, UniProt P9WMR3); experiment: DnaB intein splicing inhibitors, dose response, biochemical, cell-free fluorescence (AID 449749); type: functional
T6 sequence (P9WMR3 whole entry): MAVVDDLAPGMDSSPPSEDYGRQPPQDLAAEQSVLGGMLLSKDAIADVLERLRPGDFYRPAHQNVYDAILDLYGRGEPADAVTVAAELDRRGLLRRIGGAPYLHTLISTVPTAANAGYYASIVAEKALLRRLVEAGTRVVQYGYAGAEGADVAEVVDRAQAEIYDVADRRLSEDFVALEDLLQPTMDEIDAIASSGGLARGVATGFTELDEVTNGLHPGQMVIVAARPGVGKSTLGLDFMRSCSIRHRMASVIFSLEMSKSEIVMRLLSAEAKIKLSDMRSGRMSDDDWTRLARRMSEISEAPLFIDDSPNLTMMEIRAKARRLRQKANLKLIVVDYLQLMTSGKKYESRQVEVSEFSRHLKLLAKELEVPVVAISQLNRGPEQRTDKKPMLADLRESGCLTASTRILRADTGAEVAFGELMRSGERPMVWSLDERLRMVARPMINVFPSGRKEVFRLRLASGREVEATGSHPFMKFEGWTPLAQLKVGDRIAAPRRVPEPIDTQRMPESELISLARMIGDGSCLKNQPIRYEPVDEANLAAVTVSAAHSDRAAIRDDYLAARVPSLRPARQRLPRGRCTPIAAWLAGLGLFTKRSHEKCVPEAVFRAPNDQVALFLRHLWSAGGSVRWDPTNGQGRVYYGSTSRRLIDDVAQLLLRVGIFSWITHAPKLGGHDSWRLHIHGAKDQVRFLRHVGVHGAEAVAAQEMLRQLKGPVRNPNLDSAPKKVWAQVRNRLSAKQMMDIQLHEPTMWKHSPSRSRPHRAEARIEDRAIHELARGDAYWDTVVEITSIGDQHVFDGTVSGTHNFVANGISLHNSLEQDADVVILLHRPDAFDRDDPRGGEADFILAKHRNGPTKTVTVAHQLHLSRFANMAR

Protein RecA = target: T7, Protein RecA (Mycobacterium tuberculosis, UniProt P9WHJ3); experiment: Fluorescence Cell-Free Homogeneous Dose Retest to Identify Inhibitors of RecA-Intein Splicing Activity. [Related pubchem assays (depositor defined):AID2097, AID2223, AID489010, AID492950]; type: functional
T7 sequence (P9WHJ3 whole entry): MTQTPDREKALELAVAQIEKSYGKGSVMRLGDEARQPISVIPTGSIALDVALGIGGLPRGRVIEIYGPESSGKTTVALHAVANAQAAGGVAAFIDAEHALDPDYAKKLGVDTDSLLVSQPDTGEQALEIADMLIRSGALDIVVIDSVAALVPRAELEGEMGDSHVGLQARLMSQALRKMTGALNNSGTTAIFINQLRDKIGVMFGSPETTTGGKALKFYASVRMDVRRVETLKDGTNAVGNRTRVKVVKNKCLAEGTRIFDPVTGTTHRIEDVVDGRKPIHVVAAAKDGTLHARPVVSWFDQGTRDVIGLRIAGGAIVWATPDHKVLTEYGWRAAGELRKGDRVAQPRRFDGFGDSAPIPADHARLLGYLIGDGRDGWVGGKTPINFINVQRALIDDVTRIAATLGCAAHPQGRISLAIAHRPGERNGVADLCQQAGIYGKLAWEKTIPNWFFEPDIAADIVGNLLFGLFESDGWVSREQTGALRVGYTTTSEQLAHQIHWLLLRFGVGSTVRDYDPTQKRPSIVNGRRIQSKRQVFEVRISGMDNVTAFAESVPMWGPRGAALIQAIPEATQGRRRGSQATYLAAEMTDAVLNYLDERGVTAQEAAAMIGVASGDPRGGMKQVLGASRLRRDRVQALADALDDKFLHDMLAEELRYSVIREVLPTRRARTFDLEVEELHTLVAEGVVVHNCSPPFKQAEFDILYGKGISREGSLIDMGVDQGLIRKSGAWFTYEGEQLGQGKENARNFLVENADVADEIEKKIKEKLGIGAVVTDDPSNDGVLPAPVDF

[13] = Luminescence Cell-Based Dose Retest to Confirm Inhibitors of Cancer Stem Cells. [Related pubchem assays (depositor defined):AID2717, AID2721]; type: functional; settings: Homo sapiens
[14] = viability loss of HMLE_sh_eGFP cells – cell-based, luminescence, counter-screen for HMLE_sh_ECad selective toxicity project, dose response (AID 463074); type: functional, Homo sapiens;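 note: HMLE human mammary epithelial cells expressing control shRNA against eGFP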

T1 sequence (P65502 whole entry): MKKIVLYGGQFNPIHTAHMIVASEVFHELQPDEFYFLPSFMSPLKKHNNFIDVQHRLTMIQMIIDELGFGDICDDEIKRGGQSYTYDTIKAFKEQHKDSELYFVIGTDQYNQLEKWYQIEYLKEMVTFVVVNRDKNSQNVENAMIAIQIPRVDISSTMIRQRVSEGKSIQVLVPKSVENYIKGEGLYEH

Question: For `CCOC(=O)c1ccccc1N1C(=O)C2Sc3nc(O)sc3C(/C=C/c3ccccc3)C2C1=O` (centres undefined), which IC50 [1] is on record?
Answer: 12.2 µM (active)

Question: What about the IC50 [2] of the same compound?
Answer: 45.9 µM (active)

Question: For `COc1ccc(-n2nnnc2SCC(=O)c2ccc(OC)c(OC)c2)cc1`, which IC50 [3] is on record?
Answer: > 47.1 µM (inactive)

Question: What about the EC50 [4] of the same compound?
Answer: > 53 µM (inactive)

Question: And the IC50 [5]?
Answer: 33 µM (inactive)

Question: For `C=COC(=O)c1sc2nc(C)cc(C)c2c1N`, which EC50 [6] is on record?
Answer: > 91.1 µM (inactive)

Question: And the EC50 [7]?
Answer: > 91.1 µM (inactive)

Question: With `O=C(Nc1nnc(SCc2ccc(F)cc2)s1)C1Cc2ccccc2CN1C(=O)c1ccco1` (centres undefined) as the compound, how does the IC50 [1] read?
Answer: 13.4 µM (active)

Question: And the IC50 [2]?
Answer: 34 µM (active)

Question: For `CCN(CC)CCN1CCN(c2cncc(-c3cccc(N)c3)n2)CC1`, which AC50 [8] is on record?
Answer: 100 µM (inactive)

Question: What about the AC50 [9] of the same compound?
Answer: 1.56 µM (active)

Question: For `CCOC(=O)C(Nc1ccc2ccccc2c1)C(=O)OCC`, which IC50 [10] is on record?
Answer: > 50 µM (not active)

Question: What about the CC50 [11] of the same compound?
Answer: > 20 µM (active)

Question: What about the IC50 (cells) of the same compound?
Answer: 4.41 µM (active)

Question: What about the AC50 [12] of the same compound?
Answer: 5.7 µM (active)

Question: What about the EC50 (Protein RecA) of the same compound?
Answer: 13 µM (active)

Question: What about the EC50 [6] of the same compound?
Answer: > 91.2 µM (inactive)

Question: What about the EC50 [7] of the same compound?
Answer: > 91.2 µM (inactive)

Question: With `Cc1ccc(N2C(=O)CC(N(CCc3ccccc3)C(=S)Nc3ccc(N(C)C)cc3)C2=O)cc1` (centres undefined) as the compound, how does the AC50 [13] read?
Answer: 5.65 µM (active)

Question: What about the AC50 [14] of the same compound?
Answer: 154 µM (active)

Question: And the IC50 [1]?
Answer: 36.8 µM (active)

Question: What about the IC50 [2] of the same compound?
Answer: 77.7 µM (active)

Question: For `COC(=O)c1cc(NC(=O)c2ccc(Cn3cc(Cl)cn3)o2)cc(C(=O)OC)c1`, which IC50 [5] is on record?
Answer: 41 µM (inactive)

Question: Which AC50 [8] does the source give for `CCN(CC)CCOc1c(Br)ccc2c1sc1nc3n(c(=O)c12)CCC3` here?
Answer: 8.15 µM (active)

Source: ChEMBL document CHEMBL1201862, “PubChem BioAssay data set” (2004)
